Measurements taken from PubChem BioAssay (NCI).
Several values for one entry are separate records, joined by “and”; a condition that tells them apart may be missing. Equal entries are not always repeated.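 Method: 48-hour compound exposure of cells in 96-well plates, five concentrations, linear interpolation of endpoints. At the GI50, growth is halved. TGI denotes the concentration required for complete inhibition of growth.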

Columns and labels:
Experiment in all cases: DTP human tumour cell line panel, 48 h
DMS 114 small cell lung = tested on: DMS 114 small cell lung
HOP-18 NSCLC = tested on: HOP-18 NSCLC
LXFL 529 NSCLC = tested on: LXFL 529 NSCLC
M19-MEL melanoma = tested on: M19-MEL melanoma
RXF-631 renal = tested on: RXF-631 renal
SNB-78 CNS = tested on: SNB-78 CNS
XF 498 CNS = tested on: XF 498 CNS
DMS 273 small cell lung = tested on: DMS 273 small cell lung
MDA-N = tested on: MDA-N

Row | SMILES | TGI (DMS 114 small cell lung) | TGI (HOP-18 NSCLC) | TGI (LXFL 529 NSCLC) | TGI (M19-MEL melanoma) | TGI (RXF-631 renal) | TGI (SNB-78 CNS) | TGI (XF 498 CNS) | TGI (DMS 273 small cell lung) | TGI (MDA-N) | GI50 (DMS 273 small cell lung) | GI50 (HOP-18 NSCLC) | GI50 (LXFL 529 NSCLC) | GI50 (SNB-78 CNS) | GI50 (MDA-N)
1 | Cc1ccc(C2=[N+]([O-])c3ccccc3C2=O)cc1 | 28.2 µM | > 100 µM | 22.9 µM | > 55.4 µM | 51.7 µM | 74.2 µM | 17.8 µM |  |  |  |  |  |  | 
2 | COC(=O)C1Cc2c(n(C)c3ccccc23)C(c2ccccc2)N1 (configuration not stated) | > 100 µM | > 100 µM | > 100 µM | > 100 µM | > 100 µM | > 100 µM |  | > 100 µM |  |  |  |  |  | 
3 | O=C1CCCSCCCC(=O)CCCSCCC1 |  |  |  |  |  |  |  |  | > 100 µM |  |  |  |  | 
4 | NC(=O)c1csc(C2O[C@@H](COP(=O)(O)OP(=O)(O)OC[C@H]3OC(n4cnc5c(N)ncnc54)[C@H](O)[C@@H]3O)[C@H](O)[C@@H]2O)n1 (some centres not stated) | > 100 µM | > 100 µM | > 100 µM |  |  | > 100 µM | > 100 µM | > 100 µM |  |  |  |  |  | 
5 | O=C(Nc1ccccc1)O/N=C1/CCCC/C1=C\c1ccccc1 | 24.8 µM | 29.9 µM | 21.4 µM | 34 µM | 47.3 µM | 33 µM |  | 31.2 µM |  |  |  |  |  | 
6 | O=C(O)CSCC(=O)c1ccccc1 |  |  |  |  |  |  |  |  | > 100 µM |  |  |  |  | 
7 | O=[N+]([O-])c1ccc2c(c1)OCCOCCOc1ccc([N+](=O)[O-])cc1OCCOCCO2 | > 100 µM |  |  |  |  | > 100 µM |  | > 100 µM |  |  |  |  |  | 
8 | C=C1C(=O)OC2C1C(OC(=O)/C(C)=C/C)CC(O)(CCl)C1C(OC(C)=O)C=C(C)C21O (configuration not stated) |  |  |  |  |  |  |  |  | 41.8 µM |  |  |  |  | 
9 | N#CC12CCC(O)C(CC1)C2=O (configuration not stated) | 36 µM | > 100 µM |  | > 100 µM | > 100 µM | > 100 µM | > 100 µM | > 100 µM |  |  |  |  |  | 
10 | O=c1oc2ccccc2cc1-c1ccc([N+](=O)[O-])cc1 |  |  |  |  |  |  |  |  | > 100 µM |  |  |  |  | 
11 | CCOC(=O)c1[nH]c2cccc3c2c1CC(Br)C3=O (configuration not stated) |  |  |  |  |  |  |  |  | 24.9 µM |  |  |  |  | 
12 | CC(C)(C)c1ccc(Oc2ccc(C#N)c(C#N)c2)c(C(C)(C)C)c1 | > 52.2 µM | > 100 µM | > 100 µM |  | > 100 µM | > 100 µM | 35.4 µM | 28.5 µM |  |  |  |  |  | 
13 | O=C1C(c2ccc(Cl)cc2)=[N+]([O-])c2ccccc21 | 14.3 µM | 58.9 µM | 18.6 µM | > 100 µM | 48.4 µM |  | 34.7 µM |  |  |  |  |  |  | 
14 | Cc1cc(Cl)ccc1NC(=O)/C(Cc1nc2ccc(C(=O)c3ccccc3)cc2[nH]c1=O)=N/NC(=O)c1ccncc1 |  |  |  |  |  |  |  |  | > 100 µM |  |  |  |  | 
15 | O=C(O)C(Cc1ccccc1-c1ccccc1)C(=O)O |  |  |  |  |  |  |  |  | > 100 µM |  |  |  |  | 
16 | O=C1C2c3[nH]c4ccccc4c3C3CCSCC3C2C(=O)N1c1ccccc1 (configuration not stated) |  |  | > 100 µM | > 100 µM |  | > 100 µM | > 100 µM | > 100 µM |  |  |  |  |  | 
17 | COc1c2c(c(OC)c3c(=O)cc(C/C(=N/NC(=O)C[n+]4ccccc4)C(=O)Nc4cc(C)ccc4C)oc13)OCO2 | > 100 µM |  | > 100 µM | > 100 µM |  | > 100 µM |  | > 100 µM |  |  |  |  |  | 
18 | N.N.NCCCCN.O=C([O-])CC(=O)[O-].O=C([O-])CC(=O)[O-].[Pt+4].[Pt+4] |  | > 100 µM | > 100 µM |  |  | > 100 µM |  | > 100 µM |  | 89.2 µM | > 100 µM | > 100 µM | > 100 µM | 
19 | Cc1ccc(C)c(NC(=O)CC2C(=O)Nc3ccccc3S2(=O)=O)c1 (configuration not stated) | > 100 µM |  | > 100 µM | > 100 µM | > 100 µM | > 100 µM | 61.6 µM | > 100 µM |  |  |  |  |  | 

Row | SMILES | TGI (DMS 114 small cell lung) | TGI (HOP-18 NSCLC) | TGI (LXFL 529 NSCLC) | TGI (M19-MEL melanoma) | TGI (RXF-631 renal) | TGI (SNB-78 CNS) | TGI (XF 498 CNS) | TGI (DMS 273 small cell lung) | TGI (MDA-N) | GI50 (DMS 273 small cell lung) | GI50 (HOP-18 NSCLC) | GI50 (LXFL 529 NSCLC) | GI50 (SNB-78 CNS) | GI50 (MDA-N)
20 | O=C(O)C1CCCN1Cc1c[nH]c2ccccc12 (configuration not stated) |  |  |  |  |  |  |  |  | > 100 µM |  |  |  |  | 
21 | COC1CCC2C(=O)CCCC2O1 (configuration not stated) | > 100 µM | > 100 µM | > 100 µM | > 100 µM | > 100 µM | > 100 µM | > 100 µM | > 100 µM |  |  |  |  |  | 
22 | COCC1N=C(c2ccc(OC)c(OCc3ccccc3)c2OC)O[C@H]1c1ccccc1 (some centres not stated) | 44.9 µM |  | 65 µM | 53.8 µM |  | 96.2 µM |  | 38.6 µM |  |  |  |  |  | 
23 | Brc1nc2c3ccccc3ncn2c1Br | 98.4 µM | 47.8 µM | > 100 µM | > 100 µM | > 100 µM | > 100 µM | 46.9 µM | > 100 µM |  |  |  |  |  | 
24 | O=C1c2cccnc2-c2nc(-c3ccccn3)cc3c2c1nc1ccccc13 |  |  |  |  |  |  |  |  | 1.25 µM |  |  |  |  | 0.259 µM
25 | CCC12CCC(O)C1N(C)CCC2Sc1ccccc1 (configuration not stated) | > 100 µM | > 100 µM |  | > 100 µM | > 100 µM | > 100 µM | > 100 µM | > 100 µM |  |  |  |  |  | 
26 | Cc1cc(N(CCC#N)CCC#N)ccc1N=Nc1ccccc1[N+](=O)[O-] | > 100 µM | > 100 µM | > 100 µM | > 100 µM | > 100 µM | > 100 µM | 80.9 µM | > 100 µM |  |  |  |  |  | 
27 | CN(C)CCN1N=Nc2cccc3cccc1c23 | > 100 µM | > 100 µM | > 100 µM |  | > 100 µM |  | > 100 µM | 87.7 µM |  |  |  |  |  | 
28 | N#C[C@]12CC3(CC[C@H]1CC1(C2)OCCO1)OCCO3 | > 100 µM | > 100 µM | > 100 µM | > 100 µM | > 100 µM | > 100 µM |  | > 100 µM |  |  |  |  |  | 
29 | O=NN(CCCl)C(=O)NCc1ccc[n+]([O-])c1 | > 100 µM |  | > 100 µM | > 100 µM | > 100 µM | > 100 µM | > 100 µM |  |  |  |  |  |  | 
30 | O=C1CC2(CCCc3sccc32)C(=O)N1 (configuration not stated) |  |  |  |  |  |  |  |  | > 100 µM |  |  |  |  | 
31 | CC1=CCP(C(F)(F)F)P(C(F)(F)F)C1 (configuration not stated) | > 100 µM | > 100 µM | > 100 µM | > 100 µM | > 100 µM | > 100 µM |  |  |  |  |  |  |  | 
32 | C=CC[P@@]1(=O)O[C@H](c2ccccc2)C(C)N1C(C)C (some centres not stated) | > 100 µM | > 100 µM | > 100 µM | > 100 µM | > 100 µM | > 100 µM | > 100 µM | > 100 µM |  |  |  |  |  | 
33 | Cc1c2cc[n+](C)cc2c(C)c2c1[nH]c1ccc(OC(C)C)cc12 |  | 27.1 µM and 35.4 µM | 5.04 µM and 11.3 µM | 6.14 µM and 7.31 µM |  | 6.56 µM and > 25.2 µM |  | 10.9 µM and 12.5 µM |  |  |  |  | 0.427 µM and 3.93 µM | 
34 | O=C(c1ccccc1)c1ccc2cccc(O)c2n1 | 39.1 µM | > 100 µM |  | > 100 µM | > 100 µM | > 100 µM | > 100 µM | > 100 µM |  |  |  |  |  | 
35 | CC1/C=C/C=C/CC/C=C/C=C/C=C/C=C/C(OC2OC(C)C(O)C(N)C2O)CC2OC(CC(O)C(O)CCC(O)CC(O)CC(O)CC(=O)OC(C)C(C)C1O)CC(O)C2C(=O)O (configuration not stated) |  |  |  |  |  |  |  |  | 31.8 µM and 46.7 µg/mL |  |  |  |  | 25.6 µg/mL
36 | CCCCCCC(O)C/C=C/CCCCCC/C(C(=O)OC)=C(/O)C(=O)OCC (configuration not stated) | > 100 µM | > 100 µM | > 100 µM | > 100 µM | > 100 µM | > 100 µM | > 100 µM | > 100 µM |  |  |  |  |  | 
37 | COC(=O)C(=O)C(C(=O)C(=O)Nc1ccc([N+](=O)[O-])cc1[N+](=O)[O-])c1nc2ccc([N+](=O)[O-])cc2[nH]c1=O (configuration not stated) | > 100 µM | > 100 µM | > 100 µM | > 100 µM | > 100 µM | > 100 µM | > 100 µM | > 100 µM |  |  |  |  |  | 
38 | O=C1NC(=O)C2=C1CCC2O (configuration not stated) |  |  |  |  |  |  |  |  | > 100 µM |  |  |  |  | 
